In brackets after ≈: the same amount, converted by molar mass.
Experiments:
Staphylococcus aureus = assay: Antibacterial activity against Staphylococcus aureus ATCC 29213 assessed as inhibition of visible growth of bacteria incubated for 24 hrs by CLSI protocol based broth-dilution method; type: functional
[1] = test system: Staphylococcus epidermidis; assay: Antibacterial activity against Staphylococcus epidermidis ATCC 12228 assessed as inhibition of visible growth of bacteria incubated for 24 hrs by CLSI protocol based broth-dilution method; type: functional

Compound	MIC (Staphylococcus aureus) [µg/mL]	MIC [1] [µg/mL]
C=C[C@]1(C)C[C@@H](OC(=O)CSc2ccccc2NC(=O)c2ccc3c(c2)B(O)OC3)[C@]2(C)[C@H](C)CC[C@]3(CCC(=O)[C@H]32)[C@@H](C)[C@@H]1O	0.063 (≈ 0.0976 µM)	1 (≈ 1.55 µM)
C=C[C@]1(C)C[C@@H](OC(=O)CSc2ccc(NC(=O)c3cccc(B(O)O)c3)cc2)[C@]2(C)[C@H](C)CC[C@]3(CCC(=O)[C@H]32)[C@@H](C)[C@@H]1O	0.031 (≈ 0.0489 µM)	0.031 (≈ 0.0489 µM)
C=C[C@]1(C)C[C@@H](OC(=O)CSc2cccc(NC(=O)c3ccc(OC)c(B(O)O)c3)c2)[C@]2(C)[C@H](C)CC[C@]3(CCC(=O)[C@H]32)[C@@H](C)[C@@H]1O	0.031 (≈ 0.0467 µM)	0.031 (≈ 0.0467 µM)
C=C[C@]1(C)C[C@@H](OC(=O)CSc2cccc(NC(=O)c3ccc(C)c(B(O)O)c3)c2)[C@]2(C)[C@H](C)CC[C@]3(CCC(=O)[C@H]32)[C@@H](C)[C@@H]1O	0.031 (≈ 0.0479 µM)	0.031 (≈ 0.0479 µM)
C=C[C@]1(C)C[C@@H](OC(=O)CSc2ccc(NC(=O)c3cc(B(O)O)ccc3F)cc2)[C@]2(C)[C@H](C)CC[C@]3(CCC(=O)[C@H]32)[C@@H](C)[C@@H]1O	0.063 (≈ 0.0967 µM)	1 (≈ 1.53 µM)
C=C[C@]1(C)C[C@@H](OC(=O)CSc2cccc(NC(=O)c3ccc(B(O)O)c([N+](=O)[O-])c3)c2)[C@]2(C)[C@H](C)CC[C@]3(CCC(=O)[C@H]32)[C@@H](C)[C@@H]1O	0.063 (≈ 0.0928 µM)	0.063 (≈ 0.0928 µM)
C=C[C@]1(C)C[C@@H](OC(=O)CSc2cccc(NC(=O)c3ccc(B(O)O)cc3[N+](=O)[O-])c2)[C@]2(C)[C@H](C)CC[C@]3(CCC(=O)[C@H]32)[C@@H](C)[C@@H]1O	0.25 (≈ 0.368 µM)	0.25 (≈ 0.368 µM)
C=C[C@]1(C)C[C@@H](OC(=O)CSc2cccc(NC(=O)c3cc(N)cc(B(O)O)c3)c2)[C@]2(C)[C@H](C)CC[C@]3(CCC(=O)[C@H]32)[C@@H](C)[C@@H]1O	0.063 (≈ 0.0971 µM)	0.063 (≈ 0.0971 µM)
C=C[C@]1(C)C[C@@H](OC(=O)CSc2cccc(NC(=O)c3ccc(F)c(B(O)O)c3)c2)[C@]2(C)[C@H](C)CC[C@]3(CCC(=O)[C@H]32)[C@@H](C)[C@@H]1O	0.063 (≈ 0.0967 µM)	16 (≈ 24.6 µM)
C=C[C@]1(C)C[C@@H](OC(=O)CSc2ccc(NC(=O)c3ccc4c(c3)B(O)OC4)cc2)[C@]2(C)[C@H](C)CC[C@]3(CCC(=O)[C@H]32)[C@@H](C)[C@@H]1O	0.016 (≈ 0.0248 µM)	0.25 (≈ 0.387 µM)
C=C[C@]1(C)C[C@@H](OC(=O)CSc2cccc(NC(=O)c3ccc(B(O)O)c(OC)c3)c2)[C@]2(C)[C@H](C)CC[C@]3(CCC(=O)[C@H]32)[C@@H](C)[C@@H]1O	0.031 (≈ 0.0467 µM)	0.031 (≈ 0.0467 µM)
C=C[C@]1(C)C[C@@H](OC(=O)CSc2cccc(NC(=O)c3cc(C)cc(B(O)O)c3)c2)[C@]2(C)[C@H](C)CC[C@]3(CCC(=O)[C@H]32)[C@@H](C)[C@@H]1O	0.031 (≈ 0.0479 µM)	0.031 (≈ 0.0479 µM)
C=C[C@]1(C)C[C@@H](OC(=O)CSc2cccc(NC(=O)c3cccc(B(O)O)c3)c2)[C@]2(C)[C@H](C)CC[C@]3(CCC(=O)[C@H]32)[C@@H](C)[C@@H]1O	0.063 (≈ 0.0994 µM)	0.063 (≈ 0.0994 µM)

Continued by falling MIC (Staphylococcus aureus), values first:

MIC (Staphylococcus aureus) [µg/mL]	MIC [1] [µg/mL]	Compound
0.25	0.25	22-(3-(((5-Borono-3-pyridinyl)carbonyl)amino)phenylsulfanyl)-22-deoxypleuromutilin
0.063 (≈ 0.0967 µM)	0.063 (≈ 0.0967 µM)	C=C[C@]1(C)C[C@@H](OC(=O)CSc2cccc(NC(=O)c3cc(B(O)O)ccc3F)c2)[C@]2(C)[C@H](C)CC[C@]3(CCC(=O)[C@H]32)[C@@H](C)[C@@H]1O
0.063 (≈ 0.0973 µM)	0.063 (≈ 0.0973 µM)	C=C[C@]1(C)C[C@@H](OC(=O)CSc2cccc(NC(=O)Cc3ccc(B(O)O)cc3)c2)[C@]2(C)[C@H](C)CC[C@]3(CCC(=O)[C@H]32)[C@@H](C)[C@@H]1O
0.063 (≈ 0.102 µM)	0.125 (≈ 0.202 µM)	C=C[C@]1(C)C[C@@H](OC(=O)CSc2cccc(NCc3cccc(B(O)O)c3)c2)[C@]2(C)[C@H](C)CC[C@]3(CCC(=O)[C@H]32)[C@@H](C)[C@@H]1O
0.063 (≈ 0.0943 µM)	1 (≈ 1.5 µM)	C=C[C@]1(C)C[C@@H](OC(=O)CSc2cccc(NC(=O)c3ccc(B(O)O)c(Cl)c3)c2)[C@]2(C)[C@H](C)CC[C@]3(CCC(=O)[C@H]32)[C@@H](C)[C@@H]1O
0.063 (≈ 0.0967 µM)	16 (≈ 24.6 µM)	C=C[C@]1(C)C[C@@H](OC(=O)CSc2ccc(NC(=O)c3ccc(B(O)O)c(F)c3)cc2)[C@]2(C)[C@H](C)CC[C@]3(CCC(=O)[C@H]32)[C@@H](C)[C@@H]1O
0.063 (≈ 0.0898 µM)	0.5 (≈ 0.713 µM)	C=C[C@]1(C)C[C@@H](OC(=O)CSc2cccc(NC(=O)c3cc(B(O)O)cc(C(F)(F)F)c3)c2)[C@]2(C)[C@H](C)CC[C@]3(CCC(=O)[C@H]32)[C@@H](C)[C@@H]1O
0.063 (≈ 0.0967 µM)	4 (≈ 6.14 µM)	C=C[C@]1(C)C[C@@H](OC(=O)CSc2ccc(NC(=O)c3ccc(B(O)O)cc3F)cc2)[C@]2(C)[C@H](C)CC[C@]3(CCC(=O)[C@H]32)[C@@H](C)[C@@H]1O
0.063 (≈ 0.102 µM)	0.063 (≈ 0.102 µM)	C=C[C@]1(C)C[C@@H](OC(=O)CSc2cccc(NCc3ccc(B(O)O)cc3)c2)[C@]2(C)[C@H](C)CC[C@]3(CCC(=O)[C@H]32)[C@@H](C)[C@@H]1O
0.063 (≈ 0.0967 µM)	16 (≈ 24.6 µM)	C=C[C@]1(C)C[C@@H](OC(=O)CSc2cccc(NC(=O)c3ccc(B(O)O)c(F)c3)c2)[C@]2(C)[C@H](C)CC[C@]3(CCC(=O)[C@H]32)[C@@H](C)[C@@H]1O
0.063 (≈ 0.0985 µM)	0.063 (≈ 0.0985 µM)	C=C[C@]1(C)C[C@@H](OC(=O)CSc2cccc(NC(=O)c3ccc(B(O)O)s3)c2)[C@]2(C)[C@H](C)CC[C@]3(CCC(=O)[C@H]32)[C@@H](C)[C@@H]1O
0.063 (≈ 0.0973 µM)	0.063 (≈ 0.0973 µM)	C=C[C@]1(C)C[C@@H](OC(=O)CSc2cccc(NC(=O)Cc3cccc(B(O)O)c3)c2)[C@]2(C)[C@H](C)CC[C@]3(CCC(=O)[C@H]32)[C@@H](C)[C@@H]1O
0.063 (≈ 0.088 µM)	0.063 (≈ 0.088 µM)	C=C[C@]1(C)C[C@@H](OC(=O)CSc2cccc(NC(=O)c3ccc(B4OC(C)(C)C(C)(C)O4)cc3)c2)[C@]2(C)[C@H](C)CC[C@]3(CCC(=O)[C@H]32)[C@@H](C)[C@@H]1O
0.063 (≈ 0.0967 µM)	0.063 (≈ 0.0967 µM)	C=C[C@]1(C)C[C@@H](OC(=O)CSc2cccc(NC(=O)c3ccc(B(O)O)cc3F)c2)[C@]2(C)[C@H](C)CC[C@]3(CCC(=O)[C@H]32)[C@@H](C)[C@@H]1O
0.031 (≈ 0.0467 µM)	0.031 (≈ 0.0467 µM)	C=C[C@]1(C)C[C@@H](OC(=O)CSc2cccc(NC(=O)c3cc(B(O)O)ccc3OC)c2)[C@]2(C)[C@H](C)CC[C@]3(CCC(=O)[C@H]32)[C@@H](C)[C@@H]1O
0.031 (≈ 0.0467 µM)	0.031 (≈ 0.0467 µM)	C=C[C@]1(C)C[C@@H](OC(=O)CSc2cccc(NC(=O)c3cc(OC)cc(B(O)O)c3)c2)[C@]2(C)[C@H](C)CC[C@]3(CCC(=O)[C@H]32)[C@@H](C)[C@@H]1O
0.031 (≈ 0.0476 µM)	0.031 (≈ 0.0476 µM)	C=C[C@]1(C)C[C@@H](OC(=O)CSc2cccc(NC(=O)c3cc(F)cc(B(O)O)c3)c2)[C@]2(C)[C@H](C)CC[C@]3(CCC(=O)[C@H]32)[C@@H](C)[C@@H]1O
0.031 (≈ 0.0463 µM)	0.031 (≈ 0.0463 µM)	C=C[C@]1(C)C[C@@H](OC(=O)CSc2cccc(NC(=O)c3cc(F)c(B(O)O)c(F)c3)c2)[C@]2(C)[C@H](C)CC[C@]3(CCC(=O)[C@H]32)[C@@H](C)[C@@H]1O

Reference: ChEMBL document CHEMBL5614394, “Novel pleuromutilin derivatives conjugated with phenyl-sulfide and boron-containing moieties as potent antibacterial agents against antibiotic-resistant bacteria” (Eur J Med Chem, 2024)
